Test results reported in patent publication US9149038B2, “4-amino-6-(heterocyclic)picolinates and 6-amino-2-(heterocyclic)pyrimidine-4-carboxylates and their use as herbicides” (Dow AgroSciences LLC, priority 2013, dated 2015).
Read-outs that look alike come from different tables or passages of the source.

Legend:
[1] = test system: Key Broadleaf Weed and Crop Species; experiment: Post-Emergent Test II: postemergent herbicidal activity, visual rating after 14 d (Table 7); format: in vivo; settings: post-emergence, 336 h; for pest or weed control at 35 g/ha: 35 g ai/ha; for pest or weed control at 70 g/ha: 70 g ai/ha; for pest or weed control at 140 g/ha: 140 g ai/ha
How it was run: (§1)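 Greenhouse-grown plants at the first or second true leaf stage (7-21 d, ~15 h photoperiod, 23-29° C day) were sprayed with compound in acetone/DMSO-based aqueous spray containing crop oil concentrate and Triton X-155 at 187 L/ha. Injury versus untreated plants was rated visually after 14 d on a 0-100 scale.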

[2] = test system: Key Grass and Sedge Weeds as well as Grass Crops; experiment: Post-Emergent Test II: postemergent herbicidal activity, visual rating after 14 d (Table 8); format: in vivo; settings: post-emergence, 336 h; for pest or weed control at 35 g/ha: 35 g ai/ha; for pest or weed control at 70 g/ha: 70 g ai/ha; for pest or weed control at 140 g/ha: 140 g ai/ha
How it was run: as §1

[3] = lambsquarters (Chenopodium album), read-out: Visual Growth Reduction (%) 14 Days After Application CHEAL
[4] = oilseed rape, canola (Brassica napus), read-out: Visual Growth Reduction (%) 14 Days After Application BRSNN
[5] = redroot pigweed (Amaranthus retroflexus), read-out: Visual Growth Reduction (%) 14 Days After Application AMARE
[6] = sunflower (Helianthus annuus), read-out: Visual Growth Reduction (%) 14 Days After Application HELAN
[7] = velvetleaf (Abutilon theophrasti), read-out: Visual Growth Reduction (%) 14 Days After Application ABUTH
[8] = wild poinsettia (Euphorbia heterophylla), read-out: Visual Growth Reduction (%) 14 Days After Application EPHHL
[9] = barnyardgrass (Echinochloa crus-galli), read-out: Visual Growth Reduction (%) 14 Days After Application ECHCG
[10] = giant foxtail (Setaria faberi), read-out: Visual Growth Reduction (%) 14 Days After Application SETFA
[11] = maize, corn (Zea mays), read-out: Visual Growth Reduction (%) 14 Days After Application ZEAMX
[12] = rice (Oryza sativa), read-out: Visual Growth Reduction (%) 14 Days After Application ORYSA
[13] = wheat, spring (Triticum aestivum), read-out: Visual Growth Reduction (%) 14 Days After Application TRZAS
[14] = yellow nutsedge (Cyperus esculentus), read-out: Visual Growth Reduction (%) 14 Days After Application CYPES

SMILES: COc1c(C(=O)O)nc(-c2cc3c(cc2F)OC(F)(F)O3)c(F)c1N [Compound 23]
- pest or weed control at 35 g/ha [1, 3]: 0 to 29%
- pest or weed control at 70 g/ha [1, 3]: 0 to 29%
- pest or weed control at 140 g/ha [1, 3]: 0 to 29%
- pest or weed control at 35 g/ha [1, 4]: 0 to 29%
- pest or weed control at 70 g/ha [1, 4]: 75 to 84%
- pest or weed control at 140 g/ha [1, 4]: 85 to 94%
- pest or weed control at 35 g/ha [1, 5]: 0 to 29%
- pest or weed control at 70 g/ha [1, 5]: 0 to 29%
- pest or weed control at 140 g/ha [1, 5]: 0 to 29%
- pest or weed control at 35 g/ha [1, 6]: 75 to 84%
- pest or weed control at 70 g/ha [1, 6]: 85 to 94%
- pest or weed control at 140 g/ha [1, 6]: 85 to 94%
- pest or weed control at 35 g/ha [1, 7]: 0 to 29%
- pest or weed control at 70 g/ha [1, 7]: 0 to 29%
- pest or weed control at 140 g/ha [1, 7]: 0 to 29%
- pest or weed control at 35 g/ha [1, 8]: 95 to 100%
- pest or weed control at 70 g/ha [1, 8]: 95 to 100%
- pest or weed control at 140 g/ha [1, 8]: 95 to 100%
- pest or weed control at 35 g/ha [2, 9]: 75 to 84%
- pest or weed control at 70 g/ha [2, 9]: 95 to 100%
- pest or weed control at 140 g/ha [2, 9]: 95 to 100%
- pest or weed control at 35 g/ha [2, 10]: 60 to 74%
- pest or weed control at 70 g/ha [2, 10]: 75 to 84%
- pest or weed control at 140 g/ha [2, 10]: 75 to 84%
- pest or weed control at 35 g/ha [2, 11]: 60 to 74%
- pest or weed control at 70 g/ha [2, 11]: 60 to 74%
- pest or weed control at 140 g/ha [2, 11]: 60 to 74%
- pest or weed control at 35 g/ha [2, 12]: 0 to 29%
- pest or weed control at 70 g/ha [2, 12]: 0 to 29%
- pest or weed control at 140 g/ha [2, 12]: 0 to 29%
- pest or weed control at 35 g/ha [2, 13]: 45 to 59%
- pest or weed control at 70 g/ha [2, 13]: 45 to 59%
- pest or weed control at 140 g/ha [2, 13]: 60 to 74%
- pest or weed control at 35 g/ha [2, 14]: 0 to 29%
- pest or weed control at 70 g/ha [2, 14]: 45 to 59%
- pest or weed control at 140 g/ha [2, 14]: 45 to 59%
